Measured values reported in PubChem BioAssay AID248 (DTP/NCI, 2004).
“And” between values parts separate entries of the source, which are not always exact repeats. Equal entries are not always repeated. Inconclusive results and toxic doses are left out. Cut-off read from the data, not from the text of the source: active = T/C of 150% or more; inactive = T/C below 125%.

Test system: L1210 leukemia ip in BDF1 mice, survival T/C
Experiment: NCI In Vivo Anticancer Drug Screen. Data for tumor model L1210 Leukemia (intraperitoneal) in B6D2F1 (BDF1) mice
Settings: endpoint: mean survival time, higher = longer survival
Outline: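 Tumor was transplanted into mice, which were then dosed with test compound or vehicle alone. Survival was recorded for each group, and the treated figure was expressed relative to the control figure.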

[1] = dose: 100.0 mg/kg/injection, schedule: Q01DX009 (ip), vehicle: Klucel (hydroxypropylcellulose) (HPC)
[2] = dose: 100.0 mg/kg/injection, schedule: Q04DX003 (ip), vehicle: Klucel (hydroxypropylcellulose) (HPC)
[3] = dose: 200.0 mg/kg/injection, schedule: Q01DX009 (ip), vehicle: Klucel (hydroxypropylcellulose) (HPC)
[4] = dose: 200.0 mg/kg/injection, schedule: Q04DX003 (ip), vehicle: Klucel (hydroxypropylcellulose) (HPC)
[5] = dose: 100.0 mg/kg/injection, schedule: Q01DX001 (ip), vehicle: saline
[6] = dose: 200.0 mg/kg/injection, schedule: Q01DX001 (ip), vehicle: saline
[7] = dose: 400.0 mg/kg/injection, schedule: Q01DX001 (ip), vehicle: saline
[8] = dose: 100.0 mg/kg/injection, schedule: Q04DX002 (ip), vehicle: saline
[9] = dose: 100.0 mg/kg/injection, schedule: Q04DX002 (ip), vehicle: Klucel (hydroxypropylcellulose) (HPC)
[10] = dose: 200.0 mg/kg/injection, schedule: Q04DX002 (ip), vehicle: Klucel (hydroxypropylcellulose) (HPC)
[11] = dose: 25.0 mg/kg/injection, schedule: Q04DX002 (ip), vehicle: saline
[12] = dose: 50.0 mg/kg/injection, schedule: Q04DX002 (ip), vehicle: saline
[13] = dose: 100.0 mg/kg/injection, schedule: Q01DX009 (ip), vehicle: saline with Tween-80
[14] = dose: 200.0 mg/kg/injection, schedule: Q01DX009 (ip), vehicle: saline with Tween-80
[15] = dose: 400.0 mg/kg/injection, schedule: Q01DX009 (ip), vehicle: Klucel (hydroxypropylcellulose) (HPC)
[16] = dose: 400.0 mg/kg/injection, schedule: Q04DX003 (ip), vehicle: Klucel (hydroxypropylcellulose) (HPC)
[17] = dose: 100.0 mg/kg/injection, schedule: Q04DX003 (ip), vehicle: saline with Tween-80
[18] = dose: 200.0 mg/kg/injection, schedule: Q04DX003 (ip), vehicle: saline with Tween-80
[19] = dose: 400.0 mg/kg/injection, schedule: Q04DX003 (ip), vehicle: saline with Tween-80

Measured: T/C

CCCCSSCCCC
inactive: dose: 50.0 mg/kg/injection, schedule: Q01DX001 (ip), vehicle: Klucel (hydroxypropylcellulose) (HPC) 94 % of control | dose: 100.0 mg/kg/injection, schedule: Q01DX001 (ip), vehicle: Klucel (hydroxypropylcellulose) (HPC) 102 % of control | dose: 200.0 mg/kg/injection, schedule: Q01DX001 (ip), vehicle: Klucel (hydroxypropylcellulose) (HPC) 105 % of control

CCC(C)C(C(=O)OCCN(CC)CC)c1ccccc1 (stereo not given)
inactive: dose: 50.0 mg/kg/injection, schedule: Q01DX009 (ip), vehicle: Klucel (hydroxypropylcellulose) (HPC) 95 % of control | [1] 97 % of control | [2] 96 % of control | [3] 104 % of control | [4] 91 % of control

O=C(Nc1ccc(C2=NCCN2)cc1)c1ccc(C(=O)Nc2ccc(C3=NCCN3)cc2)c(O)c1
inactive: dose: 15.0 mg/kg/injection, schedule: Q01DX Z (ip), vehicle: methylcellulose (MC) 96 % of control | dose: 30.0 mg/kg/injection, schedule: Q01DX Z (ip), vehicle: methylcellulose (MC) 98 % of control | dose: 60.0 mg/kg/injection, schedule: Q01DX Z (ip), vehicle: methylcellulose (MC) 93 % of control | dose: 120.0 mg/kg/injection, schedule: Q01DX Z (ip), vehicle: methylcellulose (MC) 93 % of control

S=C(N/N=C/c1ccc2c(c1)OCO2)Nc1cccc2cccnc12
inactive: [5] 105 % of control | [6] 88 % of control | [7] 96 % of control

Cn1cccc(C#N)c1=O (tested in a mixture with another compound)
inactive: [5] 103 % of control and 113 % of control | [8] 97 % of control and 110 % of control | dose: 100.0 mg/kg/injection, schedule: Q04DX003 (ip), vehicle: saline 97 % of control | [6] 106 % of control and 108 % of control | dose: 200.0 mg/kg/injection, schedule: Q04DX002 (ip), vehicle: saline 98 % of control and 113 % of control | dose: 200.0 mg/kg/injection, schedule: Q04DX003 (ip), vehicle: saline 103 % of control and 106 % of control | [7] 103 % of control and 105 % of control | dose: 400.0 mg/kg/injection, schedule: Q04DX002 (ip), vehicle: saline 100 % of control and 92 % of control | dose: 400.0 mg/kg/injection, schedule: Q04DX003 (ip), vehicle: saline 106 % of control and 91 % of control

O=[N+]([O-])c1ccc(N/N=C(\c2ccccc2)C2CCC2)c([N+](=O)[O-])c1
inactive: dose: 50.0 mg/kg/injection, schedule: Q04DX002 (ip), vehicle: Klucel (hydroxypropylcellulose) (HPC) 99 % of control | [9] 96 % of control | [10] 96 % of control

CN(C)CCNCC(Cc1ccccc1)c1ccccc1 (stereo not given)
inactive: [11] 92 % of control | [12] 92 % of control | [8] 100 % of control and 89 % of control

Cc1cc(=O)[nH]c(O)c1C#N
inactive: [13] 98 % of control | [14] 108 % of control | dose: 400.0 mg/kg/injection, schedule: Q01DX009 (ip), vehicle: saline with Tween-80 98 % of control

CCOC(=O)c1cnc(SC)nc1Nc1ccc(OC)cc1
inactive: [1] 96 % of control | [2] 95 % of control | [3] 91 % of control | [4] 98 % of control | [15] 94 % of control | [16] 90 % of control

c1ccc(-c2[nH]c(-c3ccccc3)c(-c3ccccc3)c2-c2ccccc2)cc1
inactive: dose: 50.0 mg/kg/injection, schedule: Q01DX009 (ip), vehicle: saline with Tween-80 102 % of control | [13] 95 % of control | [14] 95 % of control

O=C(O)C1C2CCC(O2)C1C(=O)O (stereo not given)
inactive: dose: 100.0 mg/kg/injection, schedule: Q01DX001 (ip), vehicle: carboxymethylcellulose (CMC) 91 % of control | [17] 100 % of control | dose: 200.0 mg/kg/injection, schedule: Q01DX001 (ip), vehicle: carboxymethylcellulose (CMC) 88 % of control | [18] 96 % of control | [19] 102 % of control

CC(=O)Nc1cc([N+](=O)[O-])c(C)c([N+](=O)[O-])c1
inactive: [17] 104 % of control | [18] 97 % of control | [19] 97 % of control

CNC(=O)C1OC(n2cnc3c(N)ncnc32)C(O)C1O (stereo not given)
inactive: dose: 0.19 mg/kg/injection, schedule: Q01DX005 (ip), vehicle: saline 110 % of control | dose: 0.19 mg/kg/injection, schedule: Q01DX009 (ip), vehicle: saline 114 % of control | dose: 0.39 mg/kg/injection, schedule: Q01DX005 (ip), vehicle: saline 105 % of control | dose: 0.39 mg/kg/injection, schedule: Q01DX009 (ip), vehicle: saline 93 % of control | dose: 0.78 mg/kg/injection, schedule: Q01DX005 (ip), vehicle: saline 116 % of control | dose: 0.78 mg/kg/injection, schedule: Q01DX009 (ip), vehicle: saline 103 % of control

COc1ccc(Cl)cc1
inactive: [13] 92 % of control | [14] 90 % of control

CCCCCCCCCCCCCCCCCCNC(=O)Nc1ccc([N+](=O)[O-])cc1Br
inactive: [9] 97 % of control | [10] 97 % of control | dose: 400.0 mg/kg/injection, schedule: Q04DX002 (ip), vehicle: Klucel (hydroxypropylcellulose) (HPC) 90 % of control

Cc1cncn1CC(=O)c1ccccc1
inactive: dose: 25.0 mg/kg/injection, schedule: Q01DX009 (ip), vehicle: saline 104 % of control and 105 % of control | [11] 101 % of control and 105 % of control | dose: 50.0 mg/kg/injection, schedule: Q01DX009 (ip), vehicle: saline 103 % of control and 104 % of control | [12] 101 % of control and 108 % of control | [9] 93 % of control | [8] 103 % of control

Cc1cc(C)c2[nH]c(=O)cc(C)c2c1
inactive: dose: 100.0 mg/kg/injection, schedule: Q01DX001 (ip), vehicle: other 97 % of control and 98 % of control | dose: 200.0 mg/kg/injection, schedule: Q01DX001 (ip), vehicle: other 97 % of control and 95 % of control | dose: 400.0 mg/kg/injection, schedule: Q01DX001 (ip), vehicle: other 108 % of control and 95 % of control

CCCC(C)CC(=O)O (stereo not given)
inactive: [5] 102 % of control | [6] 102 % of control | [7] 98 % of control

CCN(CC)S(=O)(=O)CC
inactive: dose: 100.0 mg/kg/injection, schedule: Q04DX002 (ip), vehicle: saline with Tween-80 99 % of control | dose: 200.0 mg/kg/injection, schedule: Q04DX002 (ip), vehicle: saline with Tween-80 96 % of control | dose: 400.0 mg/kg/injection, schedule: Q04DX002 (ip), vehicle: saline with Tween-80 92 % of control

C/C=C/CC1(CC(C)C)C(=O)NC(=S)NC1=O
inactive: dose: 75.0 mg/kg/injection, schedule: Q01DX001 (ip), vehicle: saline 102 % of control | dose: 150.0 mg/kg/injection, schedule: Q01DX001 (ip), vehicle: saline 94 % of control | dose: 300.0 mg/kg/injection, schedule: Q01DX001 (ip), vehicle: saline 99 % of control

CC(=O)CC(=O)Nc1ccc(-c2ccc(NC(=O)CC(C)=O)c(Cl)c2)cc1Cl
inactive: [1] 95 % of control | [2] 98 % of control | [3] 97 % of control | [4] 98 % of control | [15] 93 % of control | [16] 91 % of control
